One test concerns HeLa cells. The experiment in a line: Effect of metabolites on the growth of HeLa cells. In kind it is cell-based. As to conditions: Homo sapiens, 72 h, three days at 37° C., estimated by protein content, average of 3 or 4 experiments, read-out: IC50 (concentration required to inhibit cell growth by 50%). The method, then: HeLa cells (0.5×10^6 per Petri dish) were cultured in 3 ml of a minimum essential Eagle medium containing 10% by weight dialyzed fetal calf serum. After four hours, methional (10 μM-1 mM), methionol (10 μM-20 mM), methylthiopropionic acid (MTPA) (1 μM-20 mM), L-methionine (1 μM-20 mM) or 4-methylthio-2-oxobutanoic acid (MTOB) (1 μM-20 mM) were added to each of the three dishes. After three days at 37° C., the cells were washed twice in a buffered, phosphatized saline medium having a pH of 7.5 (PBS medium) and collected in the same type of buffer.
Cell growth was assessed by measuring protein content (see technique described in O. H. Lowry, N. J. Rosebrouh, A. L. Farr, and R. J. Randall, J. Biol. Chem., 193, 265-275 (1951)) or the DNA content in the lysate using a bisbenzimide trihydrochloride solution (Hoechst 33258) (see W. D. Jarvis, R. N. Kolesnick, F. A. Fornari, R. S. Traylor, D. A. Gewirtz, and S. Grant, Proc. Natl. Acad. Sci. USA, 91, 73-77 (1994)), or by determining […] using 3-(4,5-dimethylthiazol-2-yl)-2,5-diphenyl-tetrazolium bromide (MTT) (see T. Mosmann, J. of Immunology, Methods, 65, 55-63 (1983)).
Each value of is the average of 3 or 4 experiments as estimated by protein content.
IC50 represents the concentration of compound required to inhibit cell growth by 50%.

The subject of test [1] is BAF3 cells. The experiment in a line: DNA fragmentation in BAF3 cells, agarose gel electrophoresis. As to conditions: 200-800 μM, medium with IL3, 8 hours. The test is classed as cell-based, mouse. On the procedure:
K. L. Collins, J. Marvel, […] A. Lopez-[…]. Exp. Med., 176, 1043-1051 (1992)]. […] After 8 hours of contact, the cells were washed three times in a phosphatized buffered saline medium, pH=7.5 (PBS medium). […] The supernatants were decanted and analyzed as indicated below. For purposes of comparison, the same cultures were grown in a medium, either with IL3 (+IL3) or without IL3 (-IL3). The DNA fragments obtained were analyzed qualitatively using the method described, in particular, in W. D. Jarvis, […], and S. Grant, Proc. Natl. Acad. Sci. USA, 91, 73-77 (1994). The supernatants were treated with ribonuclease A (20 μg/ml) for 1 hour at 37° C., and with the proteinase R (100 μg/ml). The DNA was purified using phenol extraction and precipitated with ethanol. […] After electrophoresis (60V, 3 hours), the gels were stained with ethydium bromide.

Test [2] relates to BAF3 cells. Description: DNA fragmentation in BAF3 cells, spectrofluorometric analysis (Hoechst 33258). The test is classed as cell-based, mouse. On the procedure: 3×10^6 BAF3 cells were grown in 6 ml of a culture medium containing IL3 in Petri dishes in the presence of different concentrations (200-800 μM) of methional or […], a substrate of the aldehyde dehydogenase. After 8 hours of contact, the cells were washed three times in a phosphatized buffered saline medium, pH=7.5 (PBS medium). These cells were lysed in 2 ml 0.1% Triton X-100, 20 mM EDTA (ethylenediaminetetraacetic acid), 5 mM Tris pH 8, and then centrifuged at 30,000 g at 4° C. for 30 minutes. The supernatants were decanted and analyzed as indicated below.
For purposes of comparison, the same cultures were grown in a medium, either with IL3 (+IL3) or without IL3 (-IL3).
Spectrofluorometric analysis was carried out to measure the […] of DNA fragments obtained (<3 kilobases). 1 ml of a solution of bisbenzimide trihydrochloride (Hoechst 33258) (1 μg/ml) in 3 mM sodium chloride, 1 mMd4EDTA, 10 mM Tris, pH=8, was added to 2 ml supernatant. The solutions obtained were analyzed by fluorometry (excitation λ=365 nm, emission λ=460 nm). The quantities of DNA were calculated in relation to highly-purified DNA (0.1 to 1 μh in 2 ml lysis buffer) treated as indicated above and expressed in 10^-9 g DNA collected from 3×10^6 cells.

Test [3] deals with murine B16 Fl melanoma cells. The experiment in a line: Survival of mice grafted with B16 melanoma cells. The test is classed as in vivo, mouse. As to conditions: Table 5; three mice; daily injection for 15 days; BCNU 0.1 mg/kg, Compound A 25 mg/kg, Methional 25 mg/kg; control 20.5. The method, then: At t=0 day, 10^5 murine B16 Fl melanoma cells were injected into B6D2Fl mice (from the IFFA CREDO Company, France).
Table 5 reports the results corresponding to averages of the results obtained on three treated mice.
For the regimens containing multiple compounds, the quantities of each of the compounds used were identical to those of the regimens using the compounds by themselves.
Survival time was recorded beginning at t=0 day, as indicated above.
BCNU corresponds to N,N-Bis(2-chloroethyl)-N-nitrosourea. Compound A corresponds to the compound having formula (9), wherein X is a --OH radical.
Between the two regimens, the latter (to which methional was added) accounted for one-third of the mice surviving more than 60 days. The "average survival time" is the mean of the number of mice dying over the course of the experiment, i.e., within 60 days.
The procedure of the previous example was repeated, but the regimens and numbers of mice treated varied.
With respect to this latter regiment, the quantities corresponded to the quantities of compounds used alone. The percentage of long-term survivors corresponded to the percentage of mice which survived beyond 60 days.

The test system of the next test is BAF3-bO cells. The experiment in a line: Induction of DNA fragmentation by methional in BAF3-bO cells ([3H]-thymidine). As to conditions: 400 μM methional, 8 hours; control 7%. The test is classed as cell-based, mouse. The method, then: (§1) The cells used were a BAF3 lymphocytic cell line, such as that described above. The BAF3-bcl2 cells corresponded to BAF3 cells transfected by the bcl2 gene. The BAF3-bO cells corresponded to BAF3 cells not transfected by the bcl2 gene. As indicated above, the BAF3-bO cells underwent apoptosis (more than 80% of the cells) in the absence of IL3 for 16 hours. On the other hand, the BAF3-bcl2 cells, which were transfected by the bcl2 gene, evidenced no sign of apoptosis in the absence of IL3. Accordingly, they constituted a good model for determining the apoptosis step blocked in these cells, and its potential correlation with the inhibition of malondialdehyde synthesis.
(§2) The BAF3-bO or BAF3-bcl2 cells were marked by adaptation of the method described in S. Wright et al, J. of Cell. Biochem., 48, 344-355 (1992), by incubating 2.5×10^5 cells/ml with 0.5 μCi [3H]-thymidine for 40 hours at 37° C. After two washings in a culture medium, 2.5×10^6 cells were cultured in the presence of methional. […] The aliquots of the culture medium (1 ml), of the supernatant (0.3 ml), and of the solubilized sediment (0.1 ml) were measured by quantitative analysis in the scintillation counter. The percentage of DNA fragments was calculated in the following manner: […]

The subject of a further test is BAF3-bcl2 cells. The experiment in a line: Induction of DNA fragmentation by methional in BAF3-bcl2 cells ([3H]-thymidine). The test is classed as cell-based, mouse. The method, then:
as §1, §2

Each structure is given as a SMILES string.

Regarding `CSCCC=O` [methional, 3-methylthiopropanal], the IC50 in the test on HeLa cells is 100 µM. Moreover, the “triggering of apoptosis (ladder of DNA fragments of 180 to 200 base pairs on gel)” value in the test with BAF3 cells [1] is given as “apoptosis was triggered”. The “quantity of DNA fragments (<3 kilobases)” value in the test on BAF3 cells [2] (+IL3, 8 hours contact, methional 200-800 μM (concentration not given)) is on record as 127 10^-9 g DNA/3 × 10^6 cells. In addition, the “increase in amount of DNA fragments compared with cells without IL3” value in the test with BAF3 cells [2] (cells treated with IL3 and methional) is listed as “comparable to the quantity found when the cells were placed in a medium not containing IL3”. For the same compound, in test [3], the “Average Survival Time” value stood at 27 days. For the same compound, the “percentage of DNA fragments (maximum)” value is reported as 26% in the test with BAF3-bO cells and 7% with BAF3-bcl2 cells (400 μM methional, 8 hours, control 3%). The “elimination of the bcl2 inhibition of apoptosis” value in the test on BAF3-bcl2 cells (methional 50-400 μM) is given as “did not permit eliminating the inhibition of apoptosis resulting from the bcl2 gene”.

The record behind these values is patent US5744499A, “Apoptosis-modulating factors influencing the intracellular concentration of methional/malondialdehyde” (Centre International de Recherches Dermatologiques Galderma, priority 1994, dated 1998).
